For 14 compounds, IC50 results are on record in patent US7074789B2, “Kinase inhibitors” (Amgen Inc., priority 1999, dated 2006).

Some results are limits rather than exact numbers.

Holding throughout (type): biochemical
In one test the target is T1, c-Met (Homo sapiens, UniProt P08581).
T1 construct: Kinases are expressed as either kinase domains or full length constructs; made in house
The experiment in a line: Kinase inhibition assay (33P transfer), c-Met. The conditions noted are these: Table 2, class symbols A-E; read-out: Met-1. The procedure, abridged: (§1)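 Each enzyme, purified to near homogeneity by affinity chromatography, was incubated with ATP carrying 33P and a substrate polymer fixed to the plate. Unbound label was removed with dilute phosphoric acid (0.5%) before adding scintillant and counting. Potency is given as the compound level cutting label uptake by 50%.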

A further test deals with T2, Lck (Homo sapiens, UniProt P06239).
T2 construct: Kinases are expressed as either kinase domains or full length constructs; made in house
T2 sequence (P06239 whole entry, species assumed, the tested form may be a part): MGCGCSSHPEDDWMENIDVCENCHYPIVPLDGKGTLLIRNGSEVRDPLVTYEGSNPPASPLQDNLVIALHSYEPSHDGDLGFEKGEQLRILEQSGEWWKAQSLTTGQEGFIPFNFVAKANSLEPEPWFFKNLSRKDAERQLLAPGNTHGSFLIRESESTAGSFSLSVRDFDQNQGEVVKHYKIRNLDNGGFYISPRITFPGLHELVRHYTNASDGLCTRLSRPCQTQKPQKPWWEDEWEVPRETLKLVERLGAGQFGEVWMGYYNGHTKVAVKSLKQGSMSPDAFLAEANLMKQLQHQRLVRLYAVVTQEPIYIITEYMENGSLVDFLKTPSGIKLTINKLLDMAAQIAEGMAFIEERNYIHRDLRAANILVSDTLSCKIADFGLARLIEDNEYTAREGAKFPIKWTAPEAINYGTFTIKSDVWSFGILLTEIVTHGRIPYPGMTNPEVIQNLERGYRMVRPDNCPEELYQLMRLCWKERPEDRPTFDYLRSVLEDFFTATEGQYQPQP
The experiment in a line: Kinase inhibition assay (33P transfer), Lck. The conditions noted are these: Table 3, class symbols; read-out: Lck-1. The procedure, abridged: (§2)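 Steps: express kinase as GST or polyHistidine fusion in E. coli or High Five cells; optionally co-express or mix with regulatory polypeptides; incubate with 33P-ATP and plate-attached poly(Glu,Tyr) 4:1 or poly(Arg,Ser) 3:1; wash with 0.5% phosphoric acid; count by liquid scintillation.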

The next test has as its target T3, PDGFRB (Homo sapiens, UniProt P09619).
T3 construct: Kinases are expressed as either kinase domains or full length constructs; made in house
The experiment in a line: Kinase inhibition assay (33P transfer), PDGFRB. Conditions: read-out: PDGFRB-1.

Another test addresses T4, EGFR (Homo sapiens, UniProt P00533).
T4 construct: Kinases are expressed as either kinase domains or full length constructs; made in house
The experiment in a line: Kinase inhibition assay (33P transfer), EGFR. Conditions: Table 2, class symbols A-E; read-out: EGFR-1. The method, boiled down: as §1

A further test deals with T5, Kdr (Homo sapiens, UniProt P35968).
T5 construct: Kinases are expressed as either kinase domains or full length constructs; made in house
The experiment in a line: Kinase inhibition assay (33P transfer), Kdr. Conditions: Table 3, class symbols; read-out: KDR-1. The procedure, abridged: as §2

The target of the next test is T6, AKT (Homo sapiens, UniProt Q9Y243).
T6 construct: Kinases are expressed as either kinase domains or full length constructs; made in house
T6 sequence (Q9Y243 whole entry, the tested form may be a part): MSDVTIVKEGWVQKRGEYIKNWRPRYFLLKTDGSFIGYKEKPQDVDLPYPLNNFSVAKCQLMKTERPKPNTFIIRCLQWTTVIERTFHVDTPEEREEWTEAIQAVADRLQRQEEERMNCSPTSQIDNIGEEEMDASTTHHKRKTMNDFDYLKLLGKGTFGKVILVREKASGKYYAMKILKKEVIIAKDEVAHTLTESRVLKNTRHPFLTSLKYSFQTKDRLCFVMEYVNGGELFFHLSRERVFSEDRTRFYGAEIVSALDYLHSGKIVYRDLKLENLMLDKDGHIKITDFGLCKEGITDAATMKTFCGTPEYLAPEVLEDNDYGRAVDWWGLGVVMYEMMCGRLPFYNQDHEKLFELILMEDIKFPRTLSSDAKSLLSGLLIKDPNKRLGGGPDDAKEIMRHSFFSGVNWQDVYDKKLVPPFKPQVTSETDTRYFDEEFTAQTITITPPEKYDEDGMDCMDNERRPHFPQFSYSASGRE
The experiment in a line: Kinase inhibition assay (33P transfer), AKT. Conditions: Table 2, class symbols A-E; read-out: AKT3-1. The method, boiled down: as §2

The next test deals with T7, ErbB2 (Homo sapiens, UniProt P04626).
T7 construct: Kinases are expressed as either kinase domains or full length constructs; made in house
T7 sequence (P04626 23-1255, species assumed): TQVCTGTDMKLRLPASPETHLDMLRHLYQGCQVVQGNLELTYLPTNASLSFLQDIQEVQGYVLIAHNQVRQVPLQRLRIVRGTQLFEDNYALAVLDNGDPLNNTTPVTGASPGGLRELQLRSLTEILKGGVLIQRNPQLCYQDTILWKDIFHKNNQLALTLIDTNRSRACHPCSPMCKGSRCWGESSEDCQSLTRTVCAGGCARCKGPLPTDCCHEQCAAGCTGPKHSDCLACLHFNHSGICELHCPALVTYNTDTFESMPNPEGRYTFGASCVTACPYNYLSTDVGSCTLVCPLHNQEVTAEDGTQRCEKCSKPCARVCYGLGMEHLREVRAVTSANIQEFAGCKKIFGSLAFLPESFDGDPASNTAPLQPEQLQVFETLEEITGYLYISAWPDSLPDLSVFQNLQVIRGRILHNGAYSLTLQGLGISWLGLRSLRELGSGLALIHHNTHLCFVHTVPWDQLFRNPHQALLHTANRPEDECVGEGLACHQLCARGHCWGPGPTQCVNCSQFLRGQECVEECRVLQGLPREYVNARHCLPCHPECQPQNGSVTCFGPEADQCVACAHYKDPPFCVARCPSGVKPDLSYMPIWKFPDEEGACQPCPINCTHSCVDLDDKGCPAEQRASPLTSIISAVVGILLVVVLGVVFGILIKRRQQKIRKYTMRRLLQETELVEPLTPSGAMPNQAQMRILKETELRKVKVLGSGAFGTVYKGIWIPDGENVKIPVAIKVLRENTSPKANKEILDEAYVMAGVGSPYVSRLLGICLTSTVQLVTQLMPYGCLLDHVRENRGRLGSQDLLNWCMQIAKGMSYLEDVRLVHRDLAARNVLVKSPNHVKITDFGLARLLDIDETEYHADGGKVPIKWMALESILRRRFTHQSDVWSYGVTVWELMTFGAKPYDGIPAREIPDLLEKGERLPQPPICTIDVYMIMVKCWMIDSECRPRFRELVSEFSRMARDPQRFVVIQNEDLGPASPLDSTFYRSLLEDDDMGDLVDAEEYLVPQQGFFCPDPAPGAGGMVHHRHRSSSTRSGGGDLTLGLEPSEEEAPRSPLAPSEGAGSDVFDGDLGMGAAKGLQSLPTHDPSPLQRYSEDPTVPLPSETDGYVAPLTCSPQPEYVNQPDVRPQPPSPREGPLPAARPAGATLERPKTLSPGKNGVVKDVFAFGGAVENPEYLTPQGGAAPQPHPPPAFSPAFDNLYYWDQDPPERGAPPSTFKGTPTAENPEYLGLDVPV
The experiment in a line: Kinase inhibition assay (33P transfer), ErbB2. The conditions noted are these: read-out: ErbB2-2. The method, boiled down: as §1

The target of a further test is T8, Zap-70 (Homo sapiens, UniProt P43403).
T8 construct: Kinases are expressed as either kinase domains or full length constructs; made in house
T8 sequence (P43403 1-619): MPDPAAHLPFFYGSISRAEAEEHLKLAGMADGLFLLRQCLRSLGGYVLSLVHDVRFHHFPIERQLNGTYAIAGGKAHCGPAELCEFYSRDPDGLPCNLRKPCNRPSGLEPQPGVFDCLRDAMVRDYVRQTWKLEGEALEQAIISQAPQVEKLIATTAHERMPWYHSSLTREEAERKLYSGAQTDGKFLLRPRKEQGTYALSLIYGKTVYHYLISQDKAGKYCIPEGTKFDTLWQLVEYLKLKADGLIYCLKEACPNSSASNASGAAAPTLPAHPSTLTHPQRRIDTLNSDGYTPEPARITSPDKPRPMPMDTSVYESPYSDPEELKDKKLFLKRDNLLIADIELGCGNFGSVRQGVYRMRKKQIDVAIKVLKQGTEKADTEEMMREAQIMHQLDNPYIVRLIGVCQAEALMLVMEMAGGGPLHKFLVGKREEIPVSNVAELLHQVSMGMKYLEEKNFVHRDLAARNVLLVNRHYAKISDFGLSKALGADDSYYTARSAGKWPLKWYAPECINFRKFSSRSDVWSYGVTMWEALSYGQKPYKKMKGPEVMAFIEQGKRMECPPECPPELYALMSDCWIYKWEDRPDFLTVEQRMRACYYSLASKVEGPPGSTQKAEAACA
The experiment in a line: Kinase inhibition assay (33P transfer), Zap-70. The conditions noted are these: Table 3, class symbols; read-out: Zap-1. The procedure, abridged:
as §2

In a further test the target is T9, IGFR-1 (Homo sapiens, UniProt P08069).
T9 construct: Kinases are expressed as either kinase domains or full length constructs; made in house
The experiment in a line: Kinase inhibition assay (33P transfer), IGFR-1. Conditions: Table 2, class symbols A-E.

Another test deals with T10, Itk (Homo sapiens, UniProt Q08881).
T10 construct: Kinases are expressed as either kinase domains or full length constructs; made in house
T10 sequence (Q08881 1-620): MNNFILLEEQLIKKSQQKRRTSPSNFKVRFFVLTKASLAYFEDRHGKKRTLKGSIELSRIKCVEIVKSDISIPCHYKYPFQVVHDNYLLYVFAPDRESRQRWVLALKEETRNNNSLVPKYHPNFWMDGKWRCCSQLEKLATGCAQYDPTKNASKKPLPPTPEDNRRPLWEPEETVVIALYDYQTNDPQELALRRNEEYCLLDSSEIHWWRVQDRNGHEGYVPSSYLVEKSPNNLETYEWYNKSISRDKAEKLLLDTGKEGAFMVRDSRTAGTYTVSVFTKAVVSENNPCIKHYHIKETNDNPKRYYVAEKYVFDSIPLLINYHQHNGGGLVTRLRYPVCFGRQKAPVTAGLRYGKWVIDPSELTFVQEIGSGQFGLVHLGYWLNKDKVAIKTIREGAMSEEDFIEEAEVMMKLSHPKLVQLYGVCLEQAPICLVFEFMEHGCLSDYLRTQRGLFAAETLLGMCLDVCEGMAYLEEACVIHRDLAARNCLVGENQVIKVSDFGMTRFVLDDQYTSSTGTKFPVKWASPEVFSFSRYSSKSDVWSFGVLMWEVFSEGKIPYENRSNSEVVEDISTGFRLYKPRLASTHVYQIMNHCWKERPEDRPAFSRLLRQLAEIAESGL
The experiment in a line: Kinase inhibition assay (33P transfer), Itk. Conditions: Table 3, class symbols; read-out: Itk-1. The method, boiled down:
as §1

T4 sequence (P00533 25-1210, species assumed): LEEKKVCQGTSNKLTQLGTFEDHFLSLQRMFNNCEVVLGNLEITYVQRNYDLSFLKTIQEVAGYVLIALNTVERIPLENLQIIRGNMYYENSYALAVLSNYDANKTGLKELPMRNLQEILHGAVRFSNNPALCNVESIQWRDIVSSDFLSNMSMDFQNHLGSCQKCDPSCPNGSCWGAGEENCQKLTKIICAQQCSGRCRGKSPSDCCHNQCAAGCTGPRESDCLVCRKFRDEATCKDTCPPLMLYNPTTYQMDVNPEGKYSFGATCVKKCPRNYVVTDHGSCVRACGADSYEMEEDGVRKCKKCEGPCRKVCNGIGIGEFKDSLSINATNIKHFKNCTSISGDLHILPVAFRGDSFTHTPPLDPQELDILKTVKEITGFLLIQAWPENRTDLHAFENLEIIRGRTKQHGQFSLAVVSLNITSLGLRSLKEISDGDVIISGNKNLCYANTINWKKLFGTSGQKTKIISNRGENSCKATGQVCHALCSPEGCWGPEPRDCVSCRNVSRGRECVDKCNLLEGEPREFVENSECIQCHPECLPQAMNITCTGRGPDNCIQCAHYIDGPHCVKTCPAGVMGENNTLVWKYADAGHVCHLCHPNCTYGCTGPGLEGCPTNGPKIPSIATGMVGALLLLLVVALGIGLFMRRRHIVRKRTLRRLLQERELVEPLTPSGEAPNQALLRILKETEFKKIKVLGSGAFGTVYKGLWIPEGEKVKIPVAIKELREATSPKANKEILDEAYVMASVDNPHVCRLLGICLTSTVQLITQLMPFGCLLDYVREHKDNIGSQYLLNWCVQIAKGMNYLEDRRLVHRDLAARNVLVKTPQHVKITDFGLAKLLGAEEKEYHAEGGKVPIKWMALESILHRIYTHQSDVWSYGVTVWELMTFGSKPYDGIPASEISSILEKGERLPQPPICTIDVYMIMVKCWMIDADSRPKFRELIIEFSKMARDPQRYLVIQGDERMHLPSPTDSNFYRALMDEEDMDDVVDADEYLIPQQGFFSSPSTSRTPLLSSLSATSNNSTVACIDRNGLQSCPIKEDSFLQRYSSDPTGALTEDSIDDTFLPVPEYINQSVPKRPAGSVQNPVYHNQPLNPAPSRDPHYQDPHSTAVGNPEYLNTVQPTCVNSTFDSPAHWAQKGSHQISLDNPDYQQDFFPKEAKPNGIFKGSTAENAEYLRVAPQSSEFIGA
T1 sequence (P08581 25-1390): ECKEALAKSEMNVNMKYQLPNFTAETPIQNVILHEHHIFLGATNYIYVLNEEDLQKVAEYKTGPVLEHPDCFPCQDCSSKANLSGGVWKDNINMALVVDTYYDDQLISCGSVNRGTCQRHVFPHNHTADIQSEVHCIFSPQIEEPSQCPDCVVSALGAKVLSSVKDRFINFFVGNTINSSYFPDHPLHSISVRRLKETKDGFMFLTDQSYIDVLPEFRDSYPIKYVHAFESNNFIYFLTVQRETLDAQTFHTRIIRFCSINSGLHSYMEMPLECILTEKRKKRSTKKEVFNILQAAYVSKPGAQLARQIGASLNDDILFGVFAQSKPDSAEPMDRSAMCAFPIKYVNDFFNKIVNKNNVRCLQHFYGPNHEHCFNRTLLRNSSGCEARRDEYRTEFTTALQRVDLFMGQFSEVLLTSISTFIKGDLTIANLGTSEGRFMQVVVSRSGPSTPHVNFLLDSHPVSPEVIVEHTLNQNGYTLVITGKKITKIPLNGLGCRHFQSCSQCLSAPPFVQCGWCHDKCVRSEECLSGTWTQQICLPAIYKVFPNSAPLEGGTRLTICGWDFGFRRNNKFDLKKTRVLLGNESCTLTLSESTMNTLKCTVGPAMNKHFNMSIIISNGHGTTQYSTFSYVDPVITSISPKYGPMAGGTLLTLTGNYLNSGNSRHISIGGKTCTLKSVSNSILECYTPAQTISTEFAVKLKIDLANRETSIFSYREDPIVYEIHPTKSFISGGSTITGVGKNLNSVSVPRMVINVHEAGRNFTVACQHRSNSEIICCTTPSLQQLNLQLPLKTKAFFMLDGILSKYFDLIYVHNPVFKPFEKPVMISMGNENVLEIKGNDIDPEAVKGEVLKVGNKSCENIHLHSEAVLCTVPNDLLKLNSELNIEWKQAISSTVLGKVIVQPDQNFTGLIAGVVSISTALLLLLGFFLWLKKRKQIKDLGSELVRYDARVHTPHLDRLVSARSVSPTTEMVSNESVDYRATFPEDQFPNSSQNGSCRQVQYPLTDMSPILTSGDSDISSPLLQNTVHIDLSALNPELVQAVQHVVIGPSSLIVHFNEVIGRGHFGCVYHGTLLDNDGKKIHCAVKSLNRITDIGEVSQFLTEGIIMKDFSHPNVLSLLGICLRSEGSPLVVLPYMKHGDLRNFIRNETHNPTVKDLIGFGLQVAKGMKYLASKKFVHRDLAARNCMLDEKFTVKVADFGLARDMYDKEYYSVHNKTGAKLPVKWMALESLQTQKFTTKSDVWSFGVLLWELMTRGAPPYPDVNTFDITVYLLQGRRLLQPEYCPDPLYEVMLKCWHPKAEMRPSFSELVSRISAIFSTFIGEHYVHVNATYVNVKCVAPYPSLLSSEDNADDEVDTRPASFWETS

As for `COC(=O)c1ccc(-c2cc(Nc3ncnc(NCc4cccs4)n3)[nH]n2)cc1` [Compound 877], the IC50 on c-Met was 0.982 to 5.89 µM; at Lck, over 11 µM; on PDGFRB it was 0.982 to 5.89 µM; on EGFR, 5.89 to 8.59 µM; at Kdr, over 11 µM; at AKT, over 11 µM. For the same compound, the IC50 on ErbB2 is over 11 µM; at Zap-70, over 11 µM; on IGFR-1, 8.59 to 11 µM; at Itk it was 0.982 to 5.89 µM.
As to `CCOC(=O)c1cccc(Nc2ncnc(Nc3cc(-c4ccc(C(=O)OC)cc4)n[nH]3)n2)c1` [Compound 813], the IC50 on c-Met is over 9.79 µM; on Lck it was over 9.79 µM; on PDGFRB, 0.871 to 5.22 µM; at EGFR it was over 9.79 µM; at Kdr it was over 9.79 µM; at AKT it was over 9.79 µM. Besides, the IC50 at ErbB2 was over 9.79 µM; at Zap-70, over 9.79 µM; on IGFR-1 it was over 9.79 µM; on Itk, 0.871 to 5.22 µM.
For `Cc1cccc(Nc2ncnc(N(C)c3ccc4c(cnn4Cc4ccccc4)c3)n2)c1` [Compound 668], the IC50 at c-Met was 5.69 to 8.3 µM; on Lck, 5.69 to 8.3 µM; on PDGFRB, 8.3 to 10.7 µM; on EGFR it was under 0.949 µM; on Kdr, 5.69 to 8.3 µM; on AKT, over 10.7 µM. In addition, the IC50 on ErbB2 was under 0.949 µM; at Zap-70, over 10.7 µM; against IGFR-1, over 10.7 µM; on Itk, over 10.7 µM.
On to `COc1cc(Nc2ncnc(-c3cccnc3NC3CCCCC3)n2)cc(OC)c1OC` [Compound 848], for which the IC50 on c-Met is over 10.3 µM; on Lck it was 8.02 to 10.3 µM; on PDGFRB, under 0.916 µM; at EGFR it was over 10.3 µM; at Kdr, under 0.916 µM; on AKT it was over 10.3 µM. Further, the IC50 at ErbB2, at Zap-70, at IGFR-1 and on Itk was over 10.3 µM throughout.
Consider `COc1ccc(Nc2ncnc(N(C)C3CCCCC3)n2)cc1OC` [Compound 796], for which the IC50 on c-Met is 1.16 to 6.99 µM; at Lck, under 1.16 µM; at PDGFRB, 1.16 to 6.99 µM; on EGFR, under 1.16 µM; on Kdr, 10.2 to 13.1 µM; on AKT, over 13.1 µM. Moreover, the IC50 on ErbB2 was 6.99 to 10.2 µM; on Zap-70, over 13.1 µM; on IGFR-1 it was over 13.1 µM; on Itk, 6.99 to 10.2 µM.
As to `COc1ccc(Nc2ncnc(Nc3ccc(N4CCCCC4)cc3)n2)cc1OC` [Compound 899], the IC50 was 0.984 to 5.9 µM on c-Met; 0.984 to 5.9 µM at Lck; under 0.984 µM on PDGFRB; 0.984 to 5.9 µM at EGFR; 0.984 to 5.9 µM on Kdr; 5.9 to 8.61 µM at AKT. In addition, the IC50 on ErbB2 is 0.984 to 5.9 µM; at Zap-70 it was over 11.1 µM; against IGFR-1, 5.9 to 8.61 µM; at Itk, 0.984 to 5.9 µM.
For the compound `c1coc(-c2cc(Nc3ncnc(Nc4nc[nH]n4)n3)n[nH]2)c1` [Compound 889], the IC50 was 1.29 to 7.73 µM at c-Met; over 14.5 µM on Lck; 1.29 to 7.73 µM on PDGFRB; 1.29 to 7.73 µM at EGFR; 1.29 to 7.73 µM on Kdr; over 14.5 µM on AKT. Moreover, the IC50 at ErbB2 was 1.29 to 7.73 µM; at Zap-70 it was over 14.5 µM; on IGFR-1, 1.29 to 7.73 µM; at Itk, 1.29 to 7.73 µM.
As to `COc1ccc(Nc2ncnc(NCc3cccc(Cl)c3)n2)cc1OC` [Compound 792], the IC50 is over 12.1 µM at c-Met; 1.08 to 6.45 µM on Lck; over 12.1 µM at PDGFRB; 1.08 to 6.45 µM at EGFR; over 12.1 µM at Kdr; over 12.1 µM on AKT. Besides, the IC50 on ErbB2 was 6.45 to 9.41 µM; on Zap-70, over 12.1 µM; against IGFR-1 it was over 12.1 µM; on Itk, over 12.1 µM.
For `CN(c1ccc2c(cnn2Cc2ccccc2)c1)c1ncnc(Nc2cccc(Cc3nnn[nH]3)c2)n1` [Compound 671], the IC50 on c-Met is under 0.817 µM; at Lck, 7.15 to 9.19 µM; at PDGFRB, 0.817 to 4.9 µM; on EGFR, under 0.817 µM; at Kdr, 0.817 to 4.9 µM; at AKT it was over 9.19 µM. For the same compound, the IC50 on ErbB2 is under 0.817 µM; on Zap-70, over 9.19 µM; at IGFR-1 it was 4.9 to 7.15 µM; on Itk, 7.15 to 9.19 µM.
On to `CCOc1ccc(Nc2ncnc(Nc3cc(-c4ccc(C(=O)OC)cc4)n[nH]3)n2)cc1` [Compound 879], for which the IC50 is 0.927 to 5.56 µM at c-Met; over 10.4 µM at Lck; 0.927 to 5.56 µM at PDGFRB; 0.927 to 5.56 µM on EGFR; over 10.4 µM on Kdr; over 10.4 µM on AKT. The IC50 on ErbB2 is over 10.4 µM; on Zap-70, over 10.4 µM; against IGFR-1, 5.56 to 8.11 µM; on Itk, 8.11 to 10.4 µM.
For `COc1cc(Nc2ncnc(-c3cccnc3Nc3cccc4c3CCCC4)n2)cc(OC)c1OC` [Compound 841], the IC50 on c-Met, at Lck, at PDGFRB, on EGFR, at Kdr and on AKT was over 9.29 µM each time. Further, the IC50 at ErbB2, at Zap-70, against IGFR-1 and on Itk was over 9.29 µM in each case.
Take `COC(=O)c1ccc(-c2cc(Nc3ncnc(NCc4cccnc4)n3)[nH]n2)cc1` [Compound 809]: the IC50 is 5.96 to 8.7 µM at c-Met; over 11.2 µM on Lck; 8.7 to 11.2 µM on PDGFRB; over 11.2 µM on EGFR; over 11.2 µM on Kdr; 8.7 to 11.2 µM at AKT. In addition, the IC50 is 8.7 to 11.2 µM at ErbB2, over 11.2 µM at Zap-70, 5.96 to 8.7 µM against IGFR-1 and 0.994 to 5.96 µM at Itk.
For the compound `COc1ccc(Nc2ncnc(Nc3ccc4c(c3)C(=O)OC4)n2)cc1OC` [Compound 894], the IC50 is over 11.9 µM at c-Met; over 11.9 µM at Lck; under 1.05 µM at PDGFRB; 6.33 to 9.23 µM on EGFR; 1.05 to 6.33 µM on Kdr; over 11.9 µM on AKT. Besides, the IC50 is over 11.9 µM on ErbB2, over 11.9 µM at Zap-70, over 11.9 µM at IGFR-1 and 9.23 to 11.9 µM on Itk.
Consider `COc1ccc(Nc2ncnc(Nc3cc(-c4ccc(C)cc4)n[nH]3)n2)c(C)c1` [Compound 1126], for which the IC50 on c-Met is 1.03 to 6.19 µM; at Lck, under 1.03 µM; at PDGFRB, 1.03 to 6.19 µM; at EGFR, 1.03 to 6.19 µM; on Kdr, 6.19 to 9.03 µM; on AKT, over 11.6 µM. Besides, the IC50 at ErbB2 was 1.03 to 6.19 µM; at Zap-70, over 11.6 µM; at IGFR-1 it was under 1.03 µM; on Itk, 1.03 to 6.19 µM.
